In US8557833B2, “Aminopyrimidines useful as kinase inhibitors” (priority 2005, dated 2013):
Read-outs that look alike come from different tables or passages of the source.

Assays:
JAK-2 = JAK-2 (Homo sapiens, UniProt O60674); test: JAK2 inhibition assay; type: biochemical; settings: 12 μM ATP, 15 μM poly(Glu)4Tyr
Aurora-1 (Aurora B) = Aurora-1 (Aurora B) (Homo sapiens, UniProt Q96GD4); test: Aurora-1 (Aurora B) inhibition assay (radiometric); type: biochemical
Description: An assay buffer solution was prepared which consisted of 25 mM HEPES (pH 7.5), 10 mM MgCl2, 0.1% BSA and 10% glycerol. […] To 22 μL of the Aurora-B solution, in a 96-well plate, was added 2 μl of a compound stock solution in DMSO and the mixture allowed to equilibrate for 10 minutes at 25° C. The enzyme reaction was initiated by the addition of 16 μl stock [γ-^33P]-ATP solution (˜20 nCi/μL) prepared in assay buffer, to a final assay concentration of 800 μM. The reaction was stopped after 3 hours by the addition of 16 μL 500 mM phosphoric acid and the levels of ^33P incorporation into the peptide substrate were determined by the following method.
A phosphocellulose 96-well plate (Millipore, Cat no. MAPHNOB50) was pre-treated with 100 μL of a 100 mM phosphoric acid prior to the addition of the enzyme reaction mixture (40 μL). The solution was left to soak on to the phosphocellulose membrane for 30 minutes and the plate subsequently washed four times with 200 μL of a 100 mM phosphoric acid. […] Levels of non-enzyme catalyzed background radioactivity were determined by adding 16 μL of the 500 mM phosphoric acid to control wells, containing all assay components (which acts to denature the enzyme), prior to the addition of the [γ-^33P]-ATP solution. Levels of enzyme catalyzed ^33P incorporation were calculated by subtracting mean background counts from those measured at each inhibitor concentration. […] Ki values were calculated from initial rate data by non-linear regression using the Prism software package (Prism 3.0, Graphpad Software, San Diego, Calif.).

[1] = Microsomal stability assay; type: in vitro ADME; settings: 5 μM compound, 1 mg/mL liver microsome protein, 37° C., species not given
Description: Microsomal stability was monitored by generation of depletion-time profiles in microsomes from a range of species (male CD-1 mouse, male Sprague-Dawley rat, male Beagle dog, male Cynomolgus monkey and pooled mixed gender human). Compound spiking solutions were made up by diluting down the compound stock solution in DMSO (typically 10 mM) to give a solution in acetonitrile (0.5 mM). […].
The reaction was initiated by the addition (250 μL) of the pre-incubated RGS to the pre-incubated microsome/VRT/PB mixture (pre-incubation in both instances was for 10 minutes at 37° C.). Samples were incubated within Eppendorf vials (1.5 ml) on a heater shaker (DPC Micromix 5 (settings; form 20, amplitude 4) modified to be heated, to 37° C., by two plate heaters fixed to the deck and controlled by a Packard Manual Heater) attached to a Multiprobe II HT Ex automated liquid handler. The liquid handler was programmed (WinPREP software) to sample the microsomal incubation mixture after 0, 2, 10, 30 and 60 minutes of incubation and transfer an aliquot (100 μL) to a stop block (96-well block) containing 100 μL of chilled methanol. The % organic in the stop mixture was optimized for analysis by addition of appropriate volumes of aqueous/organic (typically 100 μl of 50:50 methanol:water).
Prior to analysis the stop block was placed on a shaker (DPC Micromix 5; 10 min, form 20, amplitude 5) to precipitate out proteins. The block was then centrifuged (Jouan GR412; 2000 rpm, 15 min, 4° C.). A sample aliquot (200 μL) was then transferred to an analysis block and the block was centrifuged again (Jouan GR412; 2000 rpm, 5 min, 4° C.) prior to being sent for analysis. Depletion profiles were determined by monitoring the disappearance of VRT by liquid chromatography-tandem mass spectrometry (LC-MS/MS). Samples were injected (20 μL; Agilent 1100 liquid chromatographic system equipped with autosampler) onto an analytical column. Mobile phase consisted of Water+0.05% (v/v) formic acid (A) and methanol+0.05% (v/v) formic acid (B).
Running a gradient method optimized for the compound of interest carried out the compound elution from analytical column. The total run time was 6 minutes with a flow rate of 0.35 mL/min. The entire column effluent entered the electrospray ionization source (positive mode) of a Micromass Quattro LC tandem mass spectrometer between 0.5 and 5.9 min of the run. The mass spectrometry was optimized for the compound of interest. All incubations were conducted in duplicate and results were expressed as % parent remaining at either 30 minutes or 60 minutes relative to 0 minutes sample.

JAK3 = target: T1, JAK3 (Homo sapiens, UniProt P52333); test: biochemical
T1 sequence (P52333 1-1124): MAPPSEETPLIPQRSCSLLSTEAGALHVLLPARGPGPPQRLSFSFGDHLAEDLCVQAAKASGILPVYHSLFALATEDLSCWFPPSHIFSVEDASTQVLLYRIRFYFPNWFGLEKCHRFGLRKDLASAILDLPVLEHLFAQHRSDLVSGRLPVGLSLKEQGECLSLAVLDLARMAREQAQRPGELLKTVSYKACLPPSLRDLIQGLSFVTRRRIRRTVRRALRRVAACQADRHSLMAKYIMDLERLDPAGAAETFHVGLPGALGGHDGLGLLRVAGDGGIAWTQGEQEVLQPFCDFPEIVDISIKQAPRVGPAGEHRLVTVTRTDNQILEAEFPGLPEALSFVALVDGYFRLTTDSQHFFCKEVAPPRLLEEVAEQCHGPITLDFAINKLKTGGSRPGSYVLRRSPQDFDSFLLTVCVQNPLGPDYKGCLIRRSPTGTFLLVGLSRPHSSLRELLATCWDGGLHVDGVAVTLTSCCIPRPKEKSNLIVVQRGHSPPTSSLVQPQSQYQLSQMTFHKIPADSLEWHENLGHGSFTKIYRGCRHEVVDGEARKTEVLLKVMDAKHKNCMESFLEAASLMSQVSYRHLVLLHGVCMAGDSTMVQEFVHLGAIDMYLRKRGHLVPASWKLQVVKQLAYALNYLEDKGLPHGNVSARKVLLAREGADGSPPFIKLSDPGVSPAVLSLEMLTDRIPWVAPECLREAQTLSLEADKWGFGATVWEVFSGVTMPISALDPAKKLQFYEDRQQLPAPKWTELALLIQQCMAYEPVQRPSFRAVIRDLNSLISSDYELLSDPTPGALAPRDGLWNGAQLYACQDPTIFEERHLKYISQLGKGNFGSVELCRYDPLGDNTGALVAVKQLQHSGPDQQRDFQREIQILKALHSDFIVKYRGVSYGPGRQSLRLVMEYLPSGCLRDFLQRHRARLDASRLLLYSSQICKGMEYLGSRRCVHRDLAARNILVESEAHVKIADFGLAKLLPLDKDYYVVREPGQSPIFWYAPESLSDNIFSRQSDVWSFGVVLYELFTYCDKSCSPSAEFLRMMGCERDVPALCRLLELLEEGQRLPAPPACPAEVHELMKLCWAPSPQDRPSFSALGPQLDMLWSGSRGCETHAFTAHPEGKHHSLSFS
Description: Reactions were carried out in a kinase buffer containing 100 mM HEPES (pH 7.4), 1 mM DTT, 10 mM MgCl2, 25 mM NaCl, and 0.01% BSA. Substrate concentrations in the assay were 5 μM ATP (200 uCi/μmole ATP) and 1 μM poly(Glu)4Tyr. Reactions were carried out at 25° C. and 1 nM JAK3.
To each well of a 96 well polycarbonate plate was added 1.5 μl of a candidate JAK3 inhibitor along with 50 μl of kinase buffer containing 2 μM poly(Glu)4Tyr and 10 μM ATP. This was then mixed and 50 μl of kinase buffer containing 2 nM JAK3 enzyme was added to start the reaction. After 20 minutes at room temperature (25 C), the reaction was stopped with 50 μl of 20% trichloroacetic acid (TCA) that also contained 0.4 mM ATP. The entire contents of each well were then transferred to a 96 well glass fiber filter plate using a TomTek Cell Harvester. After washing, 60 μl of scintillation fluid was added and ^33P incorporation detected on a Perkin Elmer TopCount.

[2] = 800 μM ATP, Kemptide, 25° C., read-out: Aurora B Ki
[3] = 5 μM ATP, 1 μM poly(Glu)4Tyr, 25° C., 1 nM JAK3, read-out: JAK-3 Ki

Sequence of JAK-2 (O60674 whole entry, species assumed): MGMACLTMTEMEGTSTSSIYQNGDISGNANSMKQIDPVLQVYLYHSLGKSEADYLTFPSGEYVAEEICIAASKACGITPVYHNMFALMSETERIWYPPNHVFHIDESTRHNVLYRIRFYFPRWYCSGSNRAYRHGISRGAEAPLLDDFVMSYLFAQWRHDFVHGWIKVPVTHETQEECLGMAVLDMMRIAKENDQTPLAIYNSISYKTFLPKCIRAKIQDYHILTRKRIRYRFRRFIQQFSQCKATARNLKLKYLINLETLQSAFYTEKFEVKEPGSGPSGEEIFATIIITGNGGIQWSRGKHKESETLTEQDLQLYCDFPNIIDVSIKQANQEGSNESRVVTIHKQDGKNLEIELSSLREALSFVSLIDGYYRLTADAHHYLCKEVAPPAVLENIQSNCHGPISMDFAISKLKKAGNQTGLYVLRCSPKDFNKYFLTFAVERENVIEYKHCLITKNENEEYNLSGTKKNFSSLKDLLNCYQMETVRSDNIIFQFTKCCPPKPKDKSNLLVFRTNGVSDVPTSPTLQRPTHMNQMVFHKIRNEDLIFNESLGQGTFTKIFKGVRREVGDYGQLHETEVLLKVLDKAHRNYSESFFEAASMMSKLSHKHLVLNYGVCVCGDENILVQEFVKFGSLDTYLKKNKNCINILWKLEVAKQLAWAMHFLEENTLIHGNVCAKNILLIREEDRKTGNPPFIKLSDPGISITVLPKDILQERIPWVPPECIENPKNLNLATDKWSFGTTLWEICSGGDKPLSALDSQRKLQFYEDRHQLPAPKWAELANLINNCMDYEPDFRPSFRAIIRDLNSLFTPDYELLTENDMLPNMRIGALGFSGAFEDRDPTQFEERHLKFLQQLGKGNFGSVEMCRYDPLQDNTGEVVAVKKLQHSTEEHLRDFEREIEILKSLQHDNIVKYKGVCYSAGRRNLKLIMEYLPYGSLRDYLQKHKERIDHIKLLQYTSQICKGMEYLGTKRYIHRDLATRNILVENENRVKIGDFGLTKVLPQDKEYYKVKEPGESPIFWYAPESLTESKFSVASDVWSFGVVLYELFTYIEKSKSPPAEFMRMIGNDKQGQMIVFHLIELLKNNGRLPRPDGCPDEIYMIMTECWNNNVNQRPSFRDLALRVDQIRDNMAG
Sequence of Aurora-1 (Aurora B) (Q96GD4 whole entry): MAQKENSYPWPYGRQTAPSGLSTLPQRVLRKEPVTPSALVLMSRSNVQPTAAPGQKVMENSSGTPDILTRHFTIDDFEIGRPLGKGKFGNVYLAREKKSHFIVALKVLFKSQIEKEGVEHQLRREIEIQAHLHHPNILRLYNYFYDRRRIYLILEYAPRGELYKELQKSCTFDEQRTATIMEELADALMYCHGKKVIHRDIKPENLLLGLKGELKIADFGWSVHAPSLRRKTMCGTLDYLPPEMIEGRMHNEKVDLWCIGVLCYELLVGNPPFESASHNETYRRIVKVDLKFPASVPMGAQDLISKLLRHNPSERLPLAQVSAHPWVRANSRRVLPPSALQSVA

Structure (SMILES): COc1ccccc1C(=O)Nc1ccc(Sc2nc(Nc3cc(C)[nH]n3)cc(N3CCC3)n2)cc1 [Compound I-6]
- Ki (JAK-2): 1100 nM
- Ki (Aurora-1 (Aurora B); [2]): 26 nM
- Microsomal Stability (% remaining after 30 min.) [1]: 80%

Structure (SMILES): Cc1cc(Nc2cc(N3CCC3)nc(Sc3ccc(NC(=O)c4ccccc4C(F)F)cc3)n2)[nH]n1 [Compound I-19]
- Ki (JAK-2): 410 nM
- Ki (Aurora-1 (Aurora B); [2]): 19 nM
- Microsomal Stability (% remaining after 30 min.) [1]: 109%
- Microsomal Stability (% remaining after 60 min.) [1]: 91%

Structure (SMILES): Cc1cc(Nc2cc(N3CCC3)nc(Sc3ccc(NC(=O)c4cc(Cl)ccc4Cl)cc3)n2)n[nH]1 [Compound I-21]
- Ki (JAK-2): 600 nM
- Ki (Aurora-1 (Aurora B); [2]): 6.5 nM
- Microsomal Stability (% remaining after 30 min.) [1]: 86%

Structure (SMILES): Cc1cccc(C(=O)Nc2ccc(Sc3nc(Nc4cc(C)[nH]n4)cc(N4CCC4)n3)cc2)c1 [Compound I-4]
- Ki (JAK-2): 81 nM
- Ki (Aurora-1 (Aurora B)): 24 nM
- Microsomal Stability (% remaining after 30 min.) [1]: 76%

Structure (SMILES): Cc1cc(Nc2cc(N3CCC3)nc(Sc3ccc(NC(=O)c4ccccc4C(F)(F)F)cc3)n2)[nH]n1 [Compound I-14]
- Ki (JAK-2): 720 nM
- Ki (Aurora-1 (Aurora B); [2]): 4.5 nM
- Microsomal Stability (% remaining after 30 min.) [1]: 103%
- Microsomal Stability (% remaining after 60 min.) [1]: 78%

Structure (SMILES): CCc1cccc(C(=O)Nc2ccc(Sc3nc(Nc4cc(C)[nH]n4)cc(N4CCC4)n3)cc2)c1Cl [Compound I-22]
- Ki (JAK-2): 500 nM
- Ki (Aurora-1 (Aurora B); [2]): < 6 nM
- Microsomal Stability (% remaining after 30 min.) [1]: 1%
- Microsomal Stability (% remaining after 60 min.) [1]: 46%
- Ki (JAK3): 62 nM

Structure (SMILES): Cc1cc(Nc2cc(N3CCC3)nc(Sc3ccc(NC(=O)c4cccc(Cl)c4F)cc3)n2)n[nH]1 [Compound I-15]
- Ki (JAK-2): 46 nM
- Ki (Aurora-1 (Aurora B); [2]): 7.5 nM
- Microsomal Stability (% remaining after 30 min.) [1]: 73%
- Microsomal Stability (% remaining after 60 min.) [1]: 84%
- Ki (JAK3; [3]): 120 nM

Structure (SMILES): Cc1cc(Nc2cc(N3CCC3)nc(Sc3ccc(NC(=O)c4c(F)cccc4F)cc3)n2)[nH]n1 [Compound I-2, N-{4-[4-Azetidin-1-yl-6-(5-methyl-2H-pyrazol-3-ylamino)-pyrimidin-2-ylsulfanyl]-phenyl}-2,6-Difluoro-benzamide]
- Ki (JAK-2): 67 nM
- Ki (Aurora-1 (Aurora B); [2]): 6.5 nM
- Microsomal Stability (% remaining after 30 min.) [1]: 107%
- Microsomal Stability (% remaining after 60 min.) [1]: 77%

Structure (SMILES): Cc1cc(Nc2cc(N3CCC3)nc(Sc3ccc(NC(=O)c4cccc(C)c4Cl)cc3)n2)n[nH]1 [Compound I-20]
- Ki (JAK-2): 290 nM
- Ki (Aurora-1 (Aurora B); [2]): 6 nM
- Microsomal Stability (% remaining after 30 min.) [1]: 53%
- Ki (JAK3): 61 nM

Structure (SMILES): Cc1cc(Nc2cc(N3CCC3)nc(Sc3ccc(NC(=O)c4c(Cl)cccc4Cl)cc3)n2)n[nH]1 [Compound I-11]
- Ki (JAK-2): 330 nM
- Ki (Aurora-1 (Aurora B); [2]): 7 nM
- Microsomal Stability (% remaining after 60 min.) [1]: 69%

Structure (SMILES): Cc1cc(Nc2cc(N3CCC3)nc(Sc3ccc(NC(=O)c4cccc(C(F)(F)F)c4F)cc3)n2)n[nH]1 [Compound I-13]
- Ki (JAK-2): 130 nM
- Ki (Aurora-1 (Aurora B)): 6 nM
- Microsomal Stability (% remaining after 30 min.) [1]: 85%
- Microsomal Stability (% remaining after 60 min.) [1]: 74%
- Ki (JAK3): 220 nM

Structure (SMILES): Cc1cc(Nc2cc(N3CCC3)nc(Sc3ccc(NC(=O)c4ccccc4C)cc3)n2)[nH]n1 [Compound I-5]
- Ki (JAK-2): 190 nM
- Ki (Aurora-1 (Aurora B); [2]): 14 nM
- Microsomal Stability (% remaining after 30 min.) [1]: 98%
- Microsomal Stability (% remaining after 60 min.) [1]: 65%

Structure (SMILES): Cc1cc(Nc2cc(N3CCC3)nc(Sc3ccc(NC(=O)c4ccccc4OC(F)(F)F)cc3)n2)[nH]n1 [Compound I-8]
- Ki (JAK-2): 1700 nM
- Ki (Aurora-1 (Aurora B); [2]): 11 nM
- Microsomal Stability (% remaining after 30 min.) [1]: 100%

Structure (SMILES): Cc1cc(Nc2cc(N3CCC3)nc(Sc3ccc(NC(=O)c4cccc(Cl)c4)cc3)n2)n[nH]1 [Compound I-12]
- Ki (JAK-2): 46 nM
- Ki (Aurora-1 (Aurora B); [2]): 19 nM
- Microsomal Stability (% remaining after 30 min.) [1]: 94%

Structure (SMILES): Cc1cc(Nc2cc(N3CCC3)nc(Sc3ccc(NC(=O)c4ccccc4Cl)cc3)n2)[nH]n1 [Compound I-1, N-{4-[4-Azetidin-1-yl-6-(5-methyl-2H-pyrazol-3-ylamino)-pyrimidin-2-ylsulfanyl]-phenyl}-2-chloro-benzamide]
- Ki (JAK-2): 380 nM
- Ki (Aurora-1 (Aurora B); [2]): 7 nM
- Microsomal Stability (% remaining after 30 min.) [1]: 96%
- Microsomal Stability (% remaining after 60 min.) [1]: 79%
- Ki (JAK3): 160 nM

Structure (SMILES): Cc1cc(Nc2cc(N3CCC3)nc(Sc3ccc(NC(=O)c4ccccc4F)cc3)n2)[nH]n1 [Compound I-3]
- Ki (JAK-2): 61 nM
- Ki (Aurora-1 (Aurora B); [2]): 10 nM
- Microsomal Stability (% remaining after 30 min.) [1]: 51%
- Microsomal Stability (% remaining after 60 min.) [1]: 66%

Structure (SMILES): O=C(Nc1ccc(Sc2nc(Nc3cc(C4CC4)[nH]n3)cc(N3CCC3)n2)cc1)c1ccccc1Cl [Compound I-17]
- Ki (JAK-2): 410 nM
- Ki (Aurora-1 (Aurora B); [2]): 6 nM
- Microsomal Stability (% remaining after 30 min.) [1]: 93%
- Ki (JAK3; [3]): 79 nM
